Target: T1, B. thetaiotaomicron NanH sialidase (NanH-His) (Bacteroides thetaiotaomicron, UniProt Q8AAK9)
T1 construct: gene BT_0455
T1 sequence (Q8AAK9 23-544): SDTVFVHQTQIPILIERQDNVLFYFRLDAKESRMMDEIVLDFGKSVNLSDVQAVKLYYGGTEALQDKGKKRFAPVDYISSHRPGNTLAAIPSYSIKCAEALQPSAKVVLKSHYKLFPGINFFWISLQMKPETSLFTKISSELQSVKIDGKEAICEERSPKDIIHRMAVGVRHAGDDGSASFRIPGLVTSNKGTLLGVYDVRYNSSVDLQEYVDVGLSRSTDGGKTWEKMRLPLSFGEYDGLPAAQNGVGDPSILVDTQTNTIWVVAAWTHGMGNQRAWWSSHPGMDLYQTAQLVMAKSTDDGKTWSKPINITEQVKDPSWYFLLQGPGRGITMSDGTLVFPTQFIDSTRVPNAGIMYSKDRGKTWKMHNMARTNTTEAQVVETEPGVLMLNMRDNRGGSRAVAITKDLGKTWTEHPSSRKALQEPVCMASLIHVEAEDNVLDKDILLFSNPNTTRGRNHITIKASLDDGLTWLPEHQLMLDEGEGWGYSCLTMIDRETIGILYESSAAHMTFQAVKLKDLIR
Assay: fluorogenic sialidase assay, 4-methylumbelliferone release (ex […] nm, em […] nm)
Format: biochemical
Conditions: 100 uM 4-MU-Sia, PBS pH 7.4; used to test fractions and estimate milliunits

SMILES: CC(=O)N[C@H]1[C@H]([C@H](O)[C@H](O)CO)OC(Oc2ccc3c(C)cc(=O)oc3c2)(C(=O)O)C[C@@H]1O (stereo partly shown) [4-methylumbelliferyl-N-acetylneuraminic acid]
- fluorogenic sialidase assay, 4-methylumbelliferone release (ex 365 nm, em 440 nm): Fractions were tested for activity with the fluorogenic sialidase substrate 4-methylumbelliferyl-N-acetylneuraminic acid
